Patent US20050070510A1, “Substituted tetracycline compounds as synergistic antifungal agents” (Paratek Pharmaceuticals, Inc., priority 2001, published 2005)

system: COS-1 cells; assay: In vitro mammalian cytotoxicity assay (Resazurin)

SMILES | In Vitro Cytotoxicity
CN(C)[C@@H]1C(O)=C(C(N)=O)C(=O)[C@@]2(C#N)C(O)=C3C(=O)c4c(O)ccc(CNCc5cccn5C)c4C[C@@]3(N)C[C@@]12N [SH] | * (toxicities greater than >25 μg/ml are represented by *)
CN(C)[C@@H]1C(O)=C(C(N)=O)C(=O)[C@@]2(C#N)C(O)=C3C(=O)c4c(ccc(NC5CCN(Cc6ccccc6)CC5)c4O)C[C@@]3(N)C[C@@]12N [SJ] | * (toxicities greater than >25 μg/ml are represented by *)
CN(C)[C@@H]1C(O)=C(C(N)=O)C(=O)[C@@]2(C#N)C(O)=C3C(=O)c4c(O)ccc(-c5cccc(N)c5)c4C[C@@]3(N)C[C@@]12N [FC] | ** (toxicities less than 25 μg/mL are represented by **)
C#CCOC(=O)Nc1cc(N(C)C)c2c(c1O)C(=O)C1=C(O)[C@]3(C#N)C(=O)C(C(N)=O)=C(O)[C@@H](N(C)C)[C@]3(N)C[C@]1(N)C2 [SL] | ** (toxicities less than 25 μg/mL are represented by **)
CCCCNC(=O)NCc1cc(N(C)C)c2c(c1O)C(=O)C1=C(O)[C@]3(C#N)C(=O)C(C(N)=O)=C(O)[C@@H](N(C)C)[C@]3(N)C[C@]1(N)C2 [MG] | * (toxicities greater than >25 μg/ml are represented by *)
CN(C)[C@@H]1C(O)=C(C(N)=O)C(=O)[C@@]2(C#N)C(O)=C3C(=O)c4c(O)ccc(-c5cccc(CN6CCCC6)c5)c4C[C@@]3(N)C[C@@]12N [HL] | * (toxicities greater than >25 μg/ml are represented by *)
CN(C)[C@@H]1C(O)=C(C(N)=O)C(=O)[C@@]2(C#N)C(O)=C3C(=O)c4c(O)ccc(C#Cc5ccc(NS(C)(=O)=O)cc5)c4C[C@@]3(N)C[C@@]12N [HO] | ** (toxicities less than 25 μg/mL are represented by **)
CC(O)CCc1ccc(O)c2c1C[C@@]1(N)C[C@@]3(N)[C@H](N(C)C)C(O)=C(C(N)=O)C(=O)[C@@]3(C#N)C(O)=C1C2=O (stereo partly shown) [IW] | * (toxicities greater than >25 μg/ml are represented by *)
CN(C)[C@@H]1C(O)=C(C(N)=O)C(=O)[C@@]2(C#N)C(O)=C3C(=O)c4c(O)ccc(/C=C/c5ccc(Cl)cc5)c4C[C@@]3(N)C[C@@]12N [GV] | * (toxicities greater than >25 μg/ml are represented by *)
CN(C)CC(=O)NCc1cc(N(C)C)c2c(c1O)C(=O)C1=C(O)[C@]3(C#N)C(=O)C(C(N)=O)=C(O)[C@@H](N(C)C)[C@]3(N)C[C@]1(N)C2 [LG] | ** (toxicities less than 25 μg/mL are represented by **)
Cc1cc(CNCc2cc(N(C)C)c3c(c2O)C(=O)C2=C(O)[C@]4(C#N)C(=O)C(C(N)=O)=C(O)[C@@H](N(C)C)[C@]4(N)C[C@]2(N)C3)[nH]c1C [SP] | * (toxicities greater than >25 μg/ml are represented by *)
COc1ccc(Cl)cc1-c1ccc(O)c2c1C[C@@]1(N)C[C@@]3(N)[C@H](N(C)C)C(O)=C(C(N)=O)C(=O)[C@@]3(C#N)C(O)=C1C2=O [GL] | ** (toxicities less than 25 μg/mL are represented by **)
CN(C)[C@@H]1C(O)=C(C(N)=O)C(=O)[C@@]2(C#N)C(O)=C3C(=O)c4c(O)ccc(CNCc5ccc[nH]5)c4C[C@@]3(N)C[C@@]12N [SI] | * (toxicities greater than >25 μg/ml are represented by *)
CN(C)c1cc(-c2ccc(Cl)c(Cl)c2)c(O)c2c1C[C@@]1(N)C[C@@]3(N)[C@H](N(C)C)C(O)=C(C(N)=O)C(=O)[C@@]3(C#N)C(O)=C1C2=O [EV] | ** (toxicities less than 25 μg/mL are represented by **)
COc1ccc(-c2ccc3c(c2O)C(=O)C2=C(O)[C@]4(C#N)C(=O)C(C(N)=O)=C(O)[C@@H](N(C)C)[C@]4(N)[C@@H](O)[C@]2(N)[C@H]3N)cc1CN1CCCC1 [PQ] | * (toxicities greater than >25 μg/ml are represented by *)
CN(C)c1cc(C#CC2=CCCC2)c(O)c2c1C[C@@]1(N)C[C@@]3(N)[C@H](N(C)C)C(O)=C(C(N)=O)C(=O)[C@@]3(C#N)C(O)=C1C2=O [KN] | ** (toxicities less than 25 μg/mL are represented by **)
CN(C)[C@@H]1C(O)=C(C(N)=O)C(=O)[C@@]2(C#N)C(O)=C3C(=O)c4c(O)cccc4/C(=C\c4cccc(C(N)=O)c4)[C@@]3(N)[C@H](O)[C@@]12N [CK] | * (toxicities greater than >25 μg/ml are represented by *)
CCCCC#Cc1cc(N(C)C)c2c(c1O)C(=O)C1=C(O)[C@]3(C#N)C(=O)C(C(N)=O)=C(O)[C@@H](N(C)C)[C@]3(N)C[C@]1(N)C2 [LB] | ** (toxicities less than 25 μg/mL are represented by **)
CN(C)[C@@H]1C(O)=C(C(N)=O)C(=O)[C@@]2(C#N)C(O)=C3C(=O)c4c(O)ccc(-c5ccc(CN6CCOCC6)c6ccccc56)c4C[C@@]3(N)C[C@@]12N [ON] | ** (toxicities less than 25 μg/mL are represented by **)
CC(=O)NCc1cc(-c2ccccc2)c2c(c1O)C(=O)C1=C(O)[C@]3(C#N)C(=O)C(C(N)=O)=C(O)[C@@H](N(C)C)[C@]3(N)C[C@]1(N)C2 [LJ] | * (toxicities greater than >25 μg/ml are represented by *)

SMILES | In Vitro Cytotoxicity
CN(C)c1cc(NCc2ccc([N+](=O)O)o2)c(O)c2c1C[C@@]1(N)C[C@@]3(N)[C@H](N(C)C)C(O)=C(C(N)=O)C(=O)[C@@]3(C#N)C(O)=C1C2=O [UH] | ** (toxicities less than 25 μg/mL are represented by **)
CN(C)c1cc(/C=C/c2ccc(F)cc2)c(O)c2c1C[C@@]1(N)C[C@@]3(N)[C@H](N(C)C)C(O)=C(C(N)=O)C(=O)[C@@]3(C#N)C(O)=C1C2=O [CD] | ** (toxicities less than 25 μg/mL are represented by **)
COc1ccc(CN2CCOCC2)cc1-c1ccc(O)c2c1C[C@@]1(N)C[C@@]3(N)[C@H](N(C)C)C(O)=C(C(N)=O)C(=O)[C@@]3(C#N)C(O)=C1C2=O [HU] | * (toxicities greater than >25 μg/ml are represented by *)
COCC#Cc1ccc(O)c2c1C[C@@]1(N)C[C@@]3(N)[C@H](N(C)C)C(O)=C(C(N)=O)C(=O)[C@@]3(C#N)C(O)=C1C2=O [HI] | * (toxicities greater than >25 μg/ml are represented by *)
CCOc1ccc(-c2ccc(O)c3c2C[C@@]2(N)C[C@@]4(N)[C@H](N(C)C)C(O)=C(C(N)=O)C(=O)[C@@]4(C#N)C(O)=C2C3=O)cc1 [FT] | ** (toxicities less than 25 μg/mL are represented by **)
CN(C)c1cc(CNC(=O)Nc2ccc3c(c2)OCO3)c(O)c2c1C[C@@]1(N)C[C@@]3(N)[C@H](N(C)C)C(O)=C(C(N)=O)C(=O)[C@@]3(C#N)C(O)=C1C2=O [MZ] | * (toxicities greater than >25 μg/ml are represented by *)
COc1ccc(-c2ccc3c(c2O)C(=O)C2=C(O)[C@]4(C#N)C(=O)C(C(N)=O)=C(O)[C@@H](N(C)C)[C@]4(N)[C@@H](O)[C@]2(N)C3N)cc1 (stereo partly shown) [AZ] | ** (toxicities less than 25 μg/mL are represented by **)
Cc1ncsc1/C=C/c1ccc(O)c2c1C[C@@]1(N)C[C@@]3(N)[C@H](N(C)C)C(O)=C(C(N)=O)C(=O)[C@@]3(C#N)C(O)=C1C2=O [HE] | ** (toxicities less than 25 μg/mL are represented by **)
CN(C)[C@@H]1C(O)=C(C(N)=O)C(=O)[C@@]2(C#N)C(O)=C3C(=O)c4c(ccc(C(C)(C)CCC[N+](=O)[O-])c4O)[C@H](N)[C@@]3(N)[C@H](O)[C@@]12N [BF] | ** (toxicities less than 25 μg/mL are represented by **)
CN(C)[C@@H]1C(O)=C(C(N)=O)C(=O)[C@@]2(C#N)C(O)=C3C(=O)c4c(O)ccc(-c5ccc(Cl)o5)c4C[C@@]3(N)C[C@@]12N [FV] | ** (toxicities less than 25 μg/mL are represented by **)
CN(C)[C@@H]1C(O)=C(C(N)=O)C(=O)[C@@]2(C#N)C(O)=C3C(=O)c4c(O)ccc(-c5ccc(C(=O)O)c6ccccc56)c4C[C@@]3(N)C[C@@]12N [NM] | ** (toxicities less than 25 μg/mL are represented by **)
CN(C)[C@@H]1C(O)=C(C(N)=O)C(=O)[C@@]2(C#N)C(O)=C3C(=O)c4c(O)c(C(=O)NCC5CCCO5)cc(-c5ccc(F)cc5)c4C[C@@]3(N)C[C@@]12N (stereo partly shown) [KZ] | * (toxicities greater than >25 μg/ml are represented by *)
CNNC(=O)c1cccc(-c2ccc(O)c3c2C[C@@]2(N)C[C@@]4(N)C(N(C)C)C(O)=C(C(N)=O)C(=O)[C@@]4(C#N)C(O)=C2C3=O)c1 (stereo partly shown) [QY] | * (toxicities greater than >25 μg/ml are represented by *)
CN(C)c1cc(NC(=O)Nc2cc(C(F)(F)F)cc(C(F)(F)F)c2)c(O)c2c1C[C@@]1(N)C[C@@]3(N)[C@H](N(C)C)C(O)=C(C(N)=O)C(=O)[C@@]3(C#N)C(O)=C1C2=O [IL] | ** (toxicities less than 25 μg/mL are represented by **)
CN(C)[C@@H]1C(O)=C(C(N)=O)C(=O)[C@@]2(C#N)C(O)=C3C(=O)c4c(O)ccc(-c5ccccc5)c4C[C@@]3(N)C[C@@]12N [LK] | ** (toxicities less than 25 μg/mL are represented by **)
CN(C)c1cc(NC(=O)OCC(C)(C)C)c(O)c2c1C[C@@]1(N)C[C@@]3(N)[C@H](N(C)C)C(O)=C(C(N)=O)C(=O)[C@@]3(C#N)C(O)=C1C2=O [DG] | ** (toxicities less than 25 μg/mL are represented by **)
CN(C)[C@@H]1C(O)=C(C(N)=O)C(=O)[C@@]2(C#N)C(O)=C3C(=O)c4c(O)ccc(NS(C)(=O)=O)c4C[C@@]3(N)C[C@@]12N [RZ] | * (toxicities greater than >25 μg/ml are represented by *)
CN(C)[C@@H]1C(O)=C(C(N)=O)C(=O)[C@@]2(C#N)C(O)=C3C(=O)c4c(O)ccc(C#CCNS(C)(=O)=O)c4C[C@@]3(N)C[C@@]12N [IQ] | * (toxicities greater than >25 μg/ml are represented by *)
CN(C)[C@@H]1C(O)=C(C(N)=O)C(=O)[C@@]2(C#N)C(O)=C3C(=O)c4c(O)cccc4[C@H](CSCc4ccccc4)[C@@]3(N)[C@H](O)[C@@]12N [DH] | ** (toxicities less than 25 μg/mL are represented by **)
CN(C)[C@@H]1C(O)=C(C(N)=O)C(=O)[C@@]2(C#N)C(O)=C3C(=O)c4c(O)ccc(CNC(=O)OCC(C)(C)C)c4C[C@@]3(N)C[C@@]12N [NP] | ** (toxicities less than 25 μg/mL are represented by **)
